Data from patent US10669263B2, “Substituted benzimidazole derivative as a modulator of TNF activity” (UCB Biopharma SRL, priority 2016, dated 2020).
pIC50: −log10 of the molar value. Where “and” joins values, the source holds several entries; their conditions need not be identical. Identical values can stand only once.

Legend:
TNFα [1] = biological target: T1, TNFα (Homo sapiens, UniProt P01375); experiment: Fluorescence polarisation assay: inhibition of binding of fluorescence conjugate to TNFα; settings: 10 nM TNFα, 10 nM fluorescence conjugate, 60 minutes pre-incubation, then 20 hours at ambient temperature
T1 sequence (P01375 77-233 limits assumed): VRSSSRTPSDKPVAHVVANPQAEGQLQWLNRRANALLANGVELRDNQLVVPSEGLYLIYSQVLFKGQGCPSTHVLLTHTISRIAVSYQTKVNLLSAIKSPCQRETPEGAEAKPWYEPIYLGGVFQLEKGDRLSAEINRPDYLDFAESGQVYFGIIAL
Procedure: Fluorescence Polarisation Assay
Inhibition of Binding of Fluorescence Conjugate to TNFα
Compounds were tested at 10 concentrations starting from 25 μM in a final assay concentration of 5% DMSO, by pre-incubation with TNFα for 60 minutes at ambient temperature in 20 mM Tris, 150 mM NaCl, 0.05% Tween 20, before addition of the fluorescence conjugate and a further incubation for 20 hours at ambient temperature. The final concentrations of TNFα and the fluorescence conjugate were 10 nM and 10 nM respectively in a total assay volume of 25 μL. Plates were read on a plate reader capable of detecting fluorescence polarisation (e.g. an Analyst HT plate reader; or an Envision plate reader). An IC50 value was calculated using XLfit™ (4 parameter logistic model) in ActivityBase.

TNFα [2] = biological target: T1, TNFα; experiment: Reporter gene assay (HEK-293 bioassay): inhibition of TNFα-induced NF-κB activation in HEK-Blue CD40L cells; assay type: cell-based; settings: 0.5 ng/mL TNFα, 60 minutes preincubation, 18 h incubation, read-out: IC50 value, inhibition of TNFα-induced NF-κB activation (SEAP reporter)
Description: The compounds in accordance with the present invention potently neutralise the activity of TNFα in a commercially available HEK-293 derived reporter cell line known as HEK-Blue™ CD40L. This is a stable HEK-293 transfected cell line expressing SEAP (secreted embryonic alkaline phosphatase) under the control of the IFNβ minimal promoter fused to five NF-κB binding sites. Secretion of SEAP by these cells is stimulated in a concentration-dependent manner by TNFα.
Inhibition of TNFα-induced NF-κB Activation
Stimulation of HEK-293 cells by TNFα leads to activation of the NF-κB pathway. The reporter cell line used to determine TNFα activity was purchased from InvivoGen. HEK-Blue™ CD40L is a stable HEK-293 transfected cell line expressing SEAP (secreted embryonic alkaline phosphatase) under the control of the IFNβ minimal promoter fused to five NF-κB binding sites. Secretion of SEAP by these cells is stimulated in a dose-dependent manner by TNFα, with an EC50 of 0.5 ng/mL for human TNFα. […] SEAP activity was determined in the supernatant using a colorimetric substrate, e.g. QUANTI-Blue™ or HEK-Blue™ Detection media (InvivoGen). Percentage inhibitions for compound dilutions were calculated between a DMSO control and maximum inhibition (by excess control compound) and an IC50 value calculated using XLfit™ (4 parameter logistic model) in ActivityBase.

pIC50 (TNFα [1]): > 7.70 and 7.70 to 10.00 | pIC50 (TNFα [2]): > 7.30 and 7.30 to 9.30
SMILES: Cc1nc2ccc(-c3cnc(C(C)(C)O)nc3)cc2n1Cc1c(F)cccc1OC(F)F [Example 1, 2-(5-{1-[2-(Difluoromethoxy)-6-fluorobenzyl]-2-methyl-1H-benzimidazol-6-yl}-pyrimidin-2-yl)propan-2-ol]
